Measurements as given in patent publication US20040229772A1, “Peptides responsive to antibodies against consensus peptide of the CS4-CFA/I family proteins” (priority 1996, published 2004).

Tests used:
Assay type in all cases: binding
Antibody to CS1 = experiment: ELISA of 8-mer peptides (pins) with rabbit serum; conditions: a listed pin number means recognized
Description: (§1) Blocks of pins for cleavable syntheses were obtained from Chiron Mimotopes U.S. Peptide synthesis was carried out according to the manufacturer's instructions using Opfp-derivatized amino acids. Peptides of length 8 with 7 overlap were manufactured in order to locate all linear epitopes in the sequence with a highest redundancy. […] Peptides were cleaved from the pins using 0.1 M phosphate buffer, pH 8.0, containing 40% acetonitrile. Two peptides were made and sacrificed for amino acid analysis as proof of peptide purity. A dinitrophenol (DNP) pin was included so that the efficiency of the cleavage could be monitored spectrophotometrically.
(§2) For blocking, a composition containing 5% nonfat dry milk in PBS+0.2% sodium azide was used. Stock streptavidin (Calbiochem Corp., La Jolla, Calif.) at 1 mg/ml in water was kept frozen in aliquots for up to several months. On the day of use, the stock streptavidin was diluted in phosphate buffered saline (PBS) to provide a concentration of 5 μg/ml streptavidin. Goat F(ab′)2 anti-mouse, anti-rabbit and anti-human sera were labeled with alkaline phosphatase (Biosource, International, Camarillo, Calif.).
(§3) Streptavidin was plated at 5 μg/ml, 50 μl per well, and incubated over night at 4° C. Plates were then washed by hand (Nunc Immunowash 12 hand plate washer. Fisher Scientific, Pittsburgh, Pa.) three times with PBS/0.1% TWEEN 20™. Peptides were then diluted to 10 μg/ml in PBS and plated at 50-μl/well. After incubation for one hour at room temperature followed by washing, the peptides were incubated with sera diluted in blocker at appropriate concentrations (5% nonfat dry milk) for 2 hours at room temperature. After washing the wells, 50 μl of phosphatase-labeled anti-serum IgG diluted 1:1000 in blocker was added to each well and was allowed to incubate at room temperature for 1 hour. The plates were washed. The 100 μl of PNDP (p-nitrophenylphosphate) substrate, prepared according to the manufacturer's instructions, was added to each well. Results were read at 5, 15 and 60 minutes using a microtiter plate reader (UVmax™, Moelcular Devices, Sunnyvale, Calif.).
(§4) Partially to fully purified colonization factor (40% to 100% pure) was run on SDS-PAGE gel (5-15 μg/lane of 10 comb gel (precast 10 comb, 1 mm thickness, Tris-tricene gel from Novex, San Diego, Calif.), for primary immunization run 9 lanes for each rabbit (45-135 μg CF protein with ½ the amount used in the primary immunization used as a booster). The gel was stained with 0.5% COOMASSIE BLUE™ (BioRad, Richmond, Calif.) in water for 1 hour, then destained with multiple changes of water for 60-90 minutes. The colonization factor bands were excised with a scalpel and the excess gel trimmed. The bands were stored at −20° C. until use.
(§5) After removal from freezer, the gel slices were transferred to a glass tissue homogenizer using a teflon pestle with grooves at the tip. The slices were ground with 0.3 ml phosphate buffered saline (PBS). The drill was run to homogenize the gel for 30 to 45 seconds. (In the instant case, a pestle with a shaft of steel was used which allowed placement of the pestle into the chuck of the hand-held drill.)
(§6) The homogenate was transferred to 16 mm×150 mm test tubes with disposable plastic transfer pipet. The pestle and homogenizer vessel was rinsed repeatedly with PBS and the contents transferred to the 16×150 test tube until a volume of 1.2 ml was obtained.
(§7) The sample obtained above was placed in a vortex mixer and vortexed on high. Freund's adjuvant 1.2 ml was added. (Complete Freund's was used for the primary immunization, while incomplete Freund's was used for the boost.) The composition was vortexed until a thick emulsion of almost a butter consistency was obtained (12-20 minutes).
(§8) A preimmune serum was obtained on all animals, which were then immunized with the 1 ml of the emulsion subcutaneously at 4-6 spots on the shoulders and rump. The animals were boosted three weeks later, then bleed 10 days after the booster shots. […]

[1] = tested on: antibodies raised to the consensus peptide; experiment: ELISA of 8-mer peptides with rabbit antibodies; conditions: for reactivity of 8-mer peptides with antibodies from the rabbits: rabbit antibodies raised to consensus peptide SEQ ID NO:1, biotin-SGSG-peptide on streptavidin; for interaction of peptides with the antibodies raised to the consensus peptide: rabbit antibodies raised to consensus peptide SEQ ID NO:1
Description: as §1, §2, §3
Antibodies from the rabbits were then tested against the specific 8-mer peptides obtained from SEQ ID NO:1 in the manner disclosed above to determine the binding sites of the antibodies in the sera with the consensus peptide.

Antibody to CS4 = experiment: ELISA of 8-mer peptides (pins) with rabbit serum; conditions: a listed pin number means recognized
Description: as §1, §2, §3, §4, §5, §6, §7, §8

Antibody to CS2 = experiment: ELISA of 8-mer peptides (pins) with rabbit serum; conditions: a listed pin number means recognized
Description: as §1, §2, §3, §4, §5, §6, §7, §8

Antibody to 0166 upper = experiment: ELISA of 8-mer peptides (pins) with rabbit serum
Description: as §1, §2, §3, §4, §5, §6, §7, §8

Antibody to 0166 lower = experiment: ELISA of 8-mer peptides (pins) with rabbit serum
Description: as §1, §2, §3, §4, §5, §6, §7, §8

Antibody to CS17 = experiment: ELISA of 8-mer peptides (pins) with rabbit serum; conditions: a listed pin number means recognized
Description: as §1, §2, §3, §4, §5, §6, §7, §8

Antibody to CFA/I = experiment: ELISA of 8-mer peptides (pins) with rabbit serum
Description: as §1, §2, §3, §4, §5, §6, §7, §8

[2] = rabbit 1081, a listed pin number means recognized
[3] = rabbit 1082, a listed pin number means recognized
[4] = rabbit 934, a listed pin number means recognized
[5] = rabbit 1083, a listed pin number means recognized

Sequence	pins (8-aa peptide) recognized by serum (Antibody to CS1; Antibody to CS1, rabbit 1089)	pins (8-aa peptide) recognized by serum (Antibody to CS1; Antibody to CS1, rabbit 1090)	reactivity of 8-mer peptides with antibodies from the rabbits [1]	pins (8-aa peptide) recognized by serum (Antibody to CS4; Antibody to CS4, rabbit 940)	further results
ADGSALPS (listed as Escherichia coli) [compound 20]	20	20	–	–	–
ALPSAVAL (listed as Escherichia coli) [compound 24]	–	24	most reactive	24	pins (8-aa peptide) recognized by serum (Antibody to CS2; Antibody to CS2, rabbit 1077): 24
ASVDPTID (listed as Escherichia coli) [compound 9]	–	9	most reactive	–	interaction of peptides with the antibodies raised to the consensus peptide [1]: more reliably interactive; pins (8-aa peptide) recognized by serum (Antibody to 0166 upper; [2]): 9; pins (8-aa peptide) recognized by serum (Antibody to 0166 lower; [3]): 9; pins (8-aa peptide) recognized by serum (Antibody to CS17; Antibody to CS17, rabbit 1084): 9; pins (8-aa peptide) recognized by serum (Antibody to CS4; Antibody to CS4, rabbit 938): 9; pins (8-aa peptide) recognized by serum (Antibody to CS2; Antibody to CS2, rabbit 1076): 9; pins (8-aa peptide) recognized by serum (Antibody to CS2; Antibody to CS2, rabbit 1077): 9
AVALTYSP (listed as Escherichia coli) [compound 28]	28	28	most reactive	–	interaction of peptides with the antibodies raised to the consensus peptide [1]: more reliably interactive
DGSALPSA (listed as Escherichia coli) [compound 21]	21	21	–	–	–
DLLQADGS (listed as Escherichia coli) [compound 16]	–	–	–	–	pins (8-aa peptide) recognized by serum (Antibody to 0166 upper; [2]): 16
DPTIDLLQ (listed as Escherichia coli) [compound 12]	12	12	most reactive	12	interaction of peptides with the antibodies raised to the consensus peptide [1]: more reliably interactive; pins (8-aa peptide) recognized by serum (Antibody to 0166 upper; [4]): 12; pins (8-aa peptide) recognized by serum (Antibody to 0166 upper; [2]): 12; pins (8-aa peptide) recognized by serum (Antibody to 0166 lower; [3]): 12; pins (8-aa peptide) recognized by serum (Antibody to 0166 lower; [5]): 12; pins (8-aa peptide) recognized by serum (Antibody to CS4; Antibody to CS4, rabbit 938): 12; pins (8-aa peptide) recognized by serum (Antibody to CS2; Antibody to CS2, rabbit 1076): 12
EKNITVTA (listed as Escherichia coli) [compound 2]	–	–	most reactive	2	pins (8-aa peptide) recognized by serum (Antibody to 0166 lower; [5]): 2; pins (8-aa peptide) recognized by serum (Antibody to CS17; Antibody to CS17, rabbit 1080): 2
GSALPSAV (listed as Escherichia coli) [compound 22]	–	22	–	22	–
IDLLQADG (listed as Escherichia coli) [compound 15]	–	–	–	–	pins (8-aa peptide) recognized by serum (Antibody to 0166 upper; [2]): 15
ITVTASVD (listed as Escherichia coli) [compound 5]	–	–	most reactive	–	–
KNITVTAS (listed as Escherichia coli) [compound 3]	3	–	most reactive	3	pins (8-aa peptide) recognized by serum (Antibody to 0166 lower; [5]): 3; pins (8-aa peptide) recognized by serum (Antibody to CS17; Antibody to CS17, rabbit 1080): 3
LLQADGSA (listed as Escherichia coli) [compound 17]	–	–	–	–	pins (8-aa peptide) recognized by serum (Antibody to 0166 upper; [2]): 17
LPSAVALT (listed as Escherichia coli) [compound 25]	–	–	most reactive	25	–
LQADGSAL (listed as Escherichia coli) [compound 18]	18	18	–	–	–
NITVTASV (listed as Escherichia coli) [compound 4]	4	4	most reactive	–	pins (8-aa peptide) recognized by serum (Antibody to CS17; Antibody to CS17, rabbit 1080): 4
PSAVALTY (listed as Escherichia coli) [compound 26]	–	26	most reactive	–	interaction of peptides with the antibodies raised to the consensus peptide [1]: more reliably interactive; pins (8-aa peptide) recognized by serum (Antibody to CS4; Antibody to CS4, rabbit 938): 26
QADGSALP (listed as Escherichia coli) [compound 19]	19	19	–	–	–
SALPSAVA (listed as Escherichia coli) [compound 23]	–	23	most reactive	–	–
SAVALTYS (listed as Escherichia coli) [compound 27]	–	27	most reactive	–	interaction of peptides with the antibodies raised to the consensus peptide [1]: more reliably interactive
SVDPTIDL (listed as Escherichia coli) [compound 10]	10	10	most reactive	10	interaction of peptides with the antibodies raised to the consensus peptide [1]: more reliably interactive; pins (8-aa peptide) recognized by serum (Antibody to 0166 upper; [2]): 10; pins (8-aa peptide) recognized by serum (Antibody to CS4; Antibody to CS4, rabbit 938): 10; pins (8-aa peptide) recognized by serum (Antibody to CS2; Antibody to CS2, rabbit 1076): 10; pins (8-aa peptide) recognized by serum (Antibody to CS2; Antibody to CS2, rabbit 1077): 10
TASVDPTI (listed as Escherichia coli) [compound 8]	–	8	most reactive	–	pins (8-aa peptide) recognized by serum (Antibody to CS17; Antibody to CS17, rabbit 1084): 8; pins (8-aa peptide) recognized by serum (Antibody to CS4; Antibody to CS4, rabbit 938): 8; pins (8-aa peptide) recognized by serum (Antibody to CS2; Antibody to CS2, rabbit 1076): 8; pins (8-aa peptide) recognized by serum (Antibody to CS2; Antibody to CS2, rabbit 1077): 8
TIDLLQAD (listed as Escherichia coli) [compound 14]	–	–	most reactive	14	pins (8-aa peptide) recognized by serum (Antibody to 0166 upper; [4]): 14; pins (8-aa peptide) recognized by serum (Antibody to 0166 lower; [3]): 14; pins (8-aa peptide) recognized by serum (Antibody to CFA/I; rabbit 1078, a listed pin number means recognized): 14; pins (8-aa peptide) recognized by serum (Antibody to CFA/I; rabbit 1079, a listed pin number means recognized): 14
TVTASVDP (listed as Escherichia coli) [compound 6]	–	6	–	–	pins (8-aa peptide) recognized by serum (Antibody to CS17; Antibody to CS17, rabbit 1084): 6
VALTYSPA (listed as Escherichia coli) [compound 29]	29	29	most reactive	–	–
VEKNITVT (listed as Escherichia coli) [compound 1]	–	–	–	1	pins (8-aa peptide) recognized by serum (Antibody to CS17; Antibody to CS17, rabbit 1084): 1
VTASVDPT (listed as Escherichia coli) [compound 7]	–	7	–	–	pins (8-aa peptide) recognized by serum (Antibody to CS17; Antibody to CS17, rabbit 1084): 7; pins (8-aa peptide) recognized by serum (Antibody to CS2; Antibody to CS2, rabbit 1076): 7; pins (8-aa peptide) recognized by serum (Antibody to CS2; Antibody to CS2, rabbit 1077): 7
